# Measurements taken from patent US11590116B2 (THERAVANCE BIOPHARMA R&D IP, LLC, priority 2019, dated 2023).
# Assays:
# [1] = target: T1, recombinant human ALK5 (TGF-βR1) protein (Homo sapiens, UniProt P36897); assay: Biochemical ALK5 (TGF-βR1) assay to measure pKi (LANCE Ultra ULight kinase assay); conditions: apparent pKi from pIC50 by Cheng-Prusoff, read-out: ALK5 pKi (converted)
# T1 construct: purchased Life Technologies PR9075A
# T1 sequence (P36897 34-503): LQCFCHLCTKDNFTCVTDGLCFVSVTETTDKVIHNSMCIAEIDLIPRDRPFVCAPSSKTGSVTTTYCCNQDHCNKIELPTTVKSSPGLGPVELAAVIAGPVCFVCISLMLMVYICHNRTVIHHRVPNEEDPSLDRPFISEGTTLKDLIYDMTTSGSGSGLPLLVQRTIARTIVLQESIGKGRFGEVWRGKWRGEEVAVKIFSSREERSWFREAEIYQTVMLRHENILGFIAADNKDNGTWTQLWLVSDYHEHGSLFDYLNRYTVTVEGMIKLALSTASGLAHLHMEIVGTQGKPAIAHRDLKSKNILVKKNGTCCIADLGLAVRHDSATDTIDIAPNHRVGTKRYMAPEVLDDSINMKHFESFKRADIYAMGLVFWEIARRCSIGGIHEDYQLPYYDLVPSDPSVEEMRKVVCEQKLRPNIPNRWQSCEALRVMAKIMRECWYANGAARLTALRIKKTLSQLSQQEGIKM
# How it was run: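 Compounds (10 μM to 25 pM) preincubated 60 minutes at room temperature with enzyme, then reaction run 60 minutes at 37° C with ATP added as 125 μM (5× final). Stopped with EDTA plus Eu-anti-phospho-Topoisomerase 2-alpha (Thr1342) antibody, TR-FRET read at 665 nm; pIC50 converted to pKi via Cheng-Prusoff.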
# [2] = system: TGF-β-stimulated SMAD3 phosphorylation in BEAS-2B cells; assay: Cellular ALK5 potency assay, inhibition of TGF-β stimulated pSMAD3 formation in BEAS-2B cells; type: cell-based; conditions: Homo sapiens; inhibition of TGF-β stimulated pSMAD3 formation, BEAS-2B cells; read-out: BEAS2B pIC50 (converted)
# How it was run: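 pSMAD3 was quantified by AlphaLISA in BEAS-2B lysates after 10 ng/mL TGF-β (final) for 30 min. Before stimulation, cells received compound for 1 h at 37° C in supplemented HBSS. Values are pIC50, relative to TGF-β-stimulated cells without compound.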
SMILES,Ki [1] [nM],IC50 [2] [nM]
"Cc1cccc(-c2n[nH]cc2-c2ccc3ncc(-c4cn(Cc5c[nH]cn5)nn4)cc3n2)n1 [Compound 101, 7-[1-(1H-imidazol-4-ylmethyl)triazol-4-yl]-2-[3-(6-methyl-2-pyridyl)-1H-pyrazol-4-yl]-1,5-naphthyridine]",< 0.0316,200 to 1260
"Cc1cccc(-c2[nH]cnc2-c2ccc3ncc(-c4cnc(C(=O)O[C@@H]5CCNC5)nc4)cc3c2)n1 [Compound 1059, [(3R)-pyrrolidin-3-yl] 5-[6-[5-(6-methyl-2-pyridyl)-1H-imidazol-4-yl]-3-quinolyl]pyrimidine-2-carboxylate]",0.0398 to 0.316,200 to 1260
"Cc1cccc(-c2[nH]cnc2-c2ccc3ncc(NCCN4CCC[C@@H](N)C4)cc3c2)n1 [Compound 730, N-[2-[(3R)-3-amino-1-piperidyl]ethyl]-6-[5-(6-methyl-2-pyridyl)-1H-imidazol-4-yl]quinolin-3-amine]",0.0398 to 0.316,25.1 to 158
"Cc1cccc(-c2[nH]cnc2-c2ccc3ncc(C(=O)O[C@H]4CCC[C@H](N)C4)cc3c2)n1 (racemic) [Compound 774, [rac-(1S,3S)-3-aminocyclohexyl] 6-[5-(6-methyl-2-pyridyl)-1H-imidazol-4-yl]quinoline-3-carboxylate]",0.398 to 3.16,200 to 1260
"Cc1cccc(-c2[nH]cnc2-c2ccc3ncc(-c4nccc(C(=O)OC5CCNCC5)n4)cc3c2)n1 [Compound 1102, 4-piperidyl 2-[6-[5-(6-methyl-2-pyridyl)-1H-imidazol-4-yl]-3-quinolyl]pyrimidine-4-carboxylate]",0.0398 to 0.316,200 to 1260
"CNCCn1cc(-c2cnc3ccc(-c4c(-c5cccc(C)n5)nnn4CC(=O)O)nc3c2)cn1 [Compound 630, 2-[5-[7-[1-[2-(methylamino)ethyl]pyrazol-4-yl]-1,5-naphthyridin-2-yl]-4-(6-methyl-2-pyridyl)triazol-1-yl]acetic acid]",0.398 to 3.16,1580 to 10000
"Cc1nc(-c2n[nH]cc2-c2ccc3ncc(-c4nnn5c4CNCC5)cc3n2)ccc1F [Compound 466, 2-[3-(5-fluoro-6-methyl-2-pyridyl)-1H-pyrazol-4-yl]-7-(4,5,6,7-tetrahydrotriazolo[1,5-a]pyrazin-3-yl)-1,5-naphthyridine]",0.0398 to 0.316,25.1 to 158
"Cc1cccc(-c2n[nH]cc2-c2ccc3ncc(OCC(=O)N4CCOCC4)cc3n2)n1 [Compound 486, 2-[[6-[3-(6-methyl-2-pyridyl)-1H-pyrazol-4-yl]-1,5-naphthyridin-3-yl]oxy]-1-morpholino-ethanone]",3.98 to 31.6,1580 to 10000
"Cc1nc(-c2nc3ccccn3c2-c2ccc3ncc(Br)cc3n2)ccc1F [Compound 453, 7-bromo-2-[2-(5-fluoro-6-methyl-2-pyridyl)imidazo[1,2-a]pyridin-3-yl]-1,5-naphthyridine]",0.398 to 3.16,1580 to 10000
"Cc1cccc(-c2n[nH]cc2-c2ccc3nccc(-c4cn(-c5ccccc5)nn4)c3n2)n1 [Compound 854, 2-[3-(6-methyl-2-pyridyl)-1H-pyrazol-4-yl]-8-(1-phenyltriazol-4-yl)-1,5-naphthyridine]",0.0398 to 0.316,25.1 to 158
"Cc1cccc(-c2[nH]cnc2-c2ccc3ncc(-c4ccc(C(=O)OC5CCNCC5)s4)cc3c2)n1 [Compound 1010, piperidin-4-yl 5-(6-(5-(6-methylpyridin-2-yl)-1H-imidazol-4-yl)quinolin-3-yl)thiophene-2-carboxylate]",0.0398 to 0.316,25.1 to 158
"Cc1cccc(-c2[nH]cnc2-c2ccc3nccc(C(=O)OCC4CCNCC4)c3c2)n1 [Compound 1078, 4-piperidylmethyl 6-[5-(6-methyl-2-pyridyl)-1H-imidazol-4-yl]quinoline-4-carboxylate]",0.398 to 3.16,25.1 to 158
"Cc1cccc(-c2[nH]cnc2-c2ccc3ncc(-c4ccc(C(=O)O[C@H]5CCN(C)C5)cc4)cc3c2)n1 [Compound 545, [(3S)-1-methylpyrrolidin-3-yl] 4-[6-[5-(6-methyl-2-pyridyl)-1H-imidazol-4-yl]-3-quinolyl]benzoate]",0.0398 to 0.316,25.1 to 158
"Cc1cccc(-c2[nH]cnc2-c2ccc3ncc(Nc4ccc(N5CCN(C)CC5)cn4)cc3c2)n1 [Compound 441, N-[5-(4-methylpiperazin-1-yl)-2-pyridyl]-6-[5-(6-methyl-2-pyridyl)-1H-imidazol-4-yl]quinolin-3-amine]",< 0.0316,25.1 to 158
"COC(=O)c1cccc(-c2cnc3ccc(-c4c[nH]nc4-c4cccc(C)n4)nc3c2)c1 [Compound 369, methyl 3-[6-[3-(6-methyl-2-pyridyl)-1H-pyrazol-4-yl]-1,5-naphthyridin-3-yl]benzoate]",< 0.0316,< 20
"Cc1cccc(-c2n[nH]cc2-c2ccc3ncc(N4CC[C@H](N(C)C)C4)cc3c2)n1 (racemic) [Compound 70, rac-(3S)-N,N-dimethyl-1-[6-[3-(6-methyl-2-pyridyl)-1H-pyrazol-4-yl]-3-quinolyl]pyrrolidin-3-amine]",< 0.0316,25.1 to 158
"Cc1cccc(-c2[nH]cnc2-c2ccc3ncc(C(=O)OCCC4CCNCC4)cc3c2)n1 [Compound 1048, 2-(4-piperidyl)ethyl 6-[5-(6-methyl-2-pyridyl)-1H-imidazol-4-yl]quinoline-3-carboxylate]",0.0398 to 0.316,25.1 to 158
"Cc1cccc(-c2[nH]cnc2-c2ccc3ncc(-c4cnc(C(=O)OCCN5CCNCC5)nc4)cc3c2)n1 [Compound 1138, 2-piperazin-1-ylethyl 5-[6-[5-(6-methyl-2-pyridyl)-1H-imidazol-4-yl]-3-quinolyl]pyrimidine-2-carboxylate]",0.398 to 3.16,200 to 1260
"Cc1cccc(-c2[nH]cnc2-c2ccc3ncc(C4=CCN(C)C4)cc3n2)n1 [Compound 309, 7-(1-methyl-2,5-dihydropyrrol-3-yl)-2-[5-(6-methyl-2-pyridyl)-1H-imidazol-4-yl]-1,5-naphthyridine]",< 0.0316,25.1 to 158
"Cc1cccc(-c2[nH]cnc2-c2ccc3ncc(Nc4cnn(C5CNC5)c4)cc3c2)n1 [Compound 227, N-[1-(azetidin-3-yl)pyrazol-4-yl]-6-[5-(6-methyl-2-pyridyl)-1H-imidazol-4-yl]quinolin-3-amine]",0.0398 to 0.316,200 to 1260
"Cc1cccc(-c2n[nH]cc2-c2ccc3nccc(N(C)C)c3n2)n1 [Compound 837, N,N-dimethyl-6-[3-(6-methyl-2-pyridyl)-1H-pyrazol-4-yl]-1,5-naphthyridin-4-amine]",0.0398 to 0.316,25.1 to 158
"CC(=O)NC1CC=C(c2cnc3ccc(-c4nc[nH]c4-c4cccc(C)n4)cc3c2)CC1 (centres unmarked) [Compound 26, N-[4-[6-[5-(6-methyl-2-pyridyl)-1H-imidazol-4-yl]-3-quinolyl]cyclohex-3-en-1-yl]acetamide]",< 0.0316,< 20
"Cc1cccc(-c2[nH]cnc2-c2ccc3ncc(-c4ccc(C(=O)OC5CCNCC5)nc4)cc3c2)n1 [Compound 110, piperidin-4-yl 5-(6-(5-(6-methylpyridin-2-yl)-1H-imidazol-4-yl)quinolin-3-yl)picolinate]",0.0398 to 0.316,25.1 to 158
"Cc1cccc(-c2[nH]cnc2-c2ccc3ncc(C4=CC[C@H](NC(=O)C5CCNCC5)CC4)cc3c2)n1 [Compound 370, N-[(1R)-4-[6-[5-(6-methyl-2-pyridyl)-1H-imidazol-4-yl]-3-quinolyl]cyclohex-3-en-1-yl]piperidine-4-carboxamide]",0.0398 to 0.316,1580 to 10000
"Cc1cccc(-c2n[nH]cc2-c2ccc3ncc(CN4CC(N5CCOCC5)C4)cc3n2)n1 [Compound 495, 4-[1-[[6-[3-(6-methyl-2-pyridyl)-1H-pyrazol-4-yl]-1,5-naphthyridin-3-yl]methyl]azetidin-3-yl]morpholine]",3.98 to 31.6,200 to 1260
"Cc1cccc(-c2n[nH]cc2-c2ccc3ncc(NCCN4CCN(C(C)C)CC4)cc3c2)n1 [Compound 428, N-[2-(4-isopropylpiperazin-1-yl)ethyl]-6-[3-(6-methyl-2-pyridyl)-1H-pyrazol-4-yl]quinolin-3-amine]",0.0398 to 0.316,25.1 to 158
"Cc1cccc(-c2n[nH]cc2-c2ccc3ncc(N4CCn5nc(C6=CCNC6)nc5C4)cc3n2)n1 [Compound 362, 7-[2-(2,5-dihydro-1H-pyrrol-3-yl)-6,8-dihydro-5H-[1,2,4]triazolo[1,5-a]pyrazin-7-yl]-2-[3-(6-methyl-2-pyridyl)-1H-pyrazol-4-yl]-1,5-naphthyridine]",0.0398 to 0.316,200 to 1260
"Cc1cccc(-c2[nH]cnc2-c2ccc3ncc(-c4ccnc(C(=O)OC5CCNCC5)c4)cc3c2)n1 [Compound 799, 4-piperidyl 4-[6-[5-(6-methyl-2-pyridyl)-1H-imidazol-4-yl]-3-quinolyl]pyridine-2-carboxylate]",0.0398 to 0.316,200 to 1260
